In patent publication US7282512B2, “Cycloalkyl ketoamides derivatives useful as cathepsin K inhibitors” (SmithKline Beecham Corporation, priority 2002, dated 2007) one finds Ki data, which are given here for 21 compounds.

As a reminder, the Ki is the equilibrium dissociation constant of an inhibitor or competing ligand from its target.

Molecules are shown by their SMILES.

For this assay, the target named is T1, human cathepsin K (Homo sapiens, UniProt P43235).
T1 construct: The proform of cathepsin K was converted to mature cathepsin K by brief exposure to pH 4; made in house; host or cells: baculovirus; Trichoplusia ni High Five cells (virus raised in Sf-9)
T1 sequence (P43235 115-329): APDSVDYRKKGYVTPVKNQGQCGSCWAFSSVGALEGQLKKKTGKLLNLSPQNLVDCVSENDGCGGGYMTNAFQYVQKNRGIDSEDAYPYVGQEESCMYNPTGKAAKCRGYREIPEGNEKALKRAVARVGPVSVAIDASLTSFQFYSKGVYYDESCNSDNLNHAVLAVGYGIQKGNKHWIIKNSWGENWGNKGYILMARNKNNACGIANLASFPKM
As to the kind of experiment: cathepsin K inhibition assay, fluorogenic substrate Cbz-Phe-Arg-AMC, progress curve method. It counts as biochemical. The conditions noted are these: Table 1; human recombinant enzyme, pH 5.5, 30° C., 10 μM substrate; read-out: hcatK Ki. The protocol: All assays for cathepsin K were carried out with human and rat recombinant enzyme. Assays for cathepsins S & V were also carried out with human recombinant enzyme. Assays for human cathepsins B, H, and L were carried out with enzyme, purchased from Athens Research and Technology, Inc., prepared from human liver tissue. […] A stock substrate solution of Cbz-Phe-Arg-AMC was prepared at a concentration of 50 mM in dimethyl sulfoxide. This substrate was diluted into the assay for a final substrate concentration of 10 μM in the rat cathepsin K, human cathepsin K, and human cathepsin B assays; a final substrate concentration of 5 μM in the human cathepsin L assay; and a final substrate concentration of 2 μM in the human cathepsin V assay.
All assays contained 10% dimethyl sulfoxide. […] All assays were conducted at 30° C. Product fluorescence (excitation at 360 nm; emission at 440 nm, (except cathepsin H which used excitation at 340 nm; emission at 420 nm)) was monitored with a PerSeptive Biosystems Cytofluor II fluorescence plate reader. Product progress curves were generated over 2.3 h monitoring the formation of 7-amino-4-methylcoumarin product (or β-naphthalamide for cathepsin H).
Two liters of Spodoptera frugiperda (Sf-9) cells (ATCC) were grown in Grace's Supplemented medium (Life Technologies) supplemented with 2 g/L glucose, 10% fetal bovine serum (HyClone) and 0.1% pluronic F-68 (Life Technologies). […] The cells continued to grow for 72 h post-infection, before the virus was harvested by centrifugation at 1400×g for 30 min.
One and one-half liters of Trichoplusia ni (T. ni) High Five (™) cells [JRH Biosciences, Woodland, Calif. […] Media were separated from cells at a rate of 1 L/min using the Centritech 100 (™) continuous-flow centrifuge (DuPont) operating at 200×g.
Protein Purification: Media (human and rat) were filtered through a Whatman 3 filter, and then loaded onto a 25 mL Poros HS II (26 mm×47 mm) cation exchange column equilibrated in 25 mM sodium acetate at pH 5.5 (equilibration buffer). The column was washed until the absorbance reached the baseline value, and then the protein was eluted with a linear gradient from 0-2 M sodium chloride in the equilibration buffer. Column fractions were analyzed by SDS-PAGE, N-terminal sequencing, and mass spectrometry. Fractions containing the proform of cathepsin K were pooled and frozen at −80° C. The proform was concentrated in an Amicon Centriprep 10 and fractionated with a Superdex 75 column (26 mm×600 mm, Pharmacia) equilibrated in 400 mM sodium chloride, 25 mM sodium acetate at pH 5.5.
Cathepsin K Activation: The proform of cathepsin K was converted to mature cathepsin K by brief exposure to pH 4 in the presence of 5 mM L-cysteine. Typically, 5 mM L-cysteine was added to 10 mL of approximately 1 mg/mL procathepsin K. One mL of this solution was diluted ten-fold into 450 mM sodium acetate at pH 4.0 containing 5 mM L-cysteine. This solution was reacted at 23° C. for 2 min before neutralization with 2 mL 1.8 M sodium acetate at pH 6.0. The neutralized sample was added to the remaining 9 mL of procathepsin K. The mixture was incubated at 4° C. for 2-3 days. The activated cathepsin K was chromatographed on a Poros HS II column as described above.
Potential inhibitors were evaluated using the progress curve method. Assays were carried out in the presence of variable concentrations of test compound. Reactions were initiated by addition of buffered solutions of inhibitor and substrate to enzyme. Data analysis was conducted according to one of two procedures depending on the appearance of the progress curves in the presence of inhibitors. […] Ki values were calculated from IC50 values using equation 2 assuming a competitive model.
Regarding `CCCCC(NC(=O)OCC1(COc2nnc(C)cc2-c2ccccc2)CCC1)C(=O)C(=O)N[C@H](C)c1ccccc1` (stereo in doubt) [Example 32, (1-{[(6-methyl-4-phenylpyridazin-3-yl)oxy]methyl}cyclobutyl)methyl (1R)-1-(oxo{[(1R)-1-phenylethyl]amino}acetyl)pentylcarbamate], the Ki was in the range of 10 to 100 nM. Regarding `CCCC[C@H](NC(=O)OC1(Cc2ccccc2)CCC1)C(=O)C(=O)N[C@H](C)c1ccccc1` [Example 1, 1-Benzylcyclobutyl (1S)-1-(oxo{[(1R)-1-phenylethyl]amino}acetyl)pentylcarbamate], the Ki was in the range of 100 to 1000 nM. Then `CCCC[C@H](NC(=O)OC1(Cc2ccccc2)CCCC1)C(=O)C(=O)N[C@H](C)c1ccccc1` [Example 2], with 10 to 100 nM.

For the compound `CCCC[C@H](NC(=O)OC1(Cc2ccccc2)CCCCC1)C(=O)C(=O)N[C@H](C)c1ccccc1` [Example 4, 1-Benzylcyclohexyl(1S)-1-(oxo{[(1R)-1-phenylethyl]amino}acetyl)pentylcarbamate], the Ki was 100 to 1000 nM.

As to `C[C@@H](NC(=O)C(=O)[C@H](CCCCNC(=O)N1CCOCC1)NC(=O)OCC1(Cc2ccccc2)CCCCC1)c1ccccc1` [Example 9, (1-Benzylcyclohexyl)methyl(1S)-5-[(4-morpholinylcarbonyl)amino]-1-(oxo{[(1R)-1-phenylethy]amino}acetyl)pentylcarbamate], the Ki was in the range of 10 to 100 nM. `C[C@@H](NC(=O)C(=O)[C@H](CCCCNC(=O)N1CCOCC1)NC(=O)OCC1(Cc2ccc(F)cc2)CCC1)c1ccccc1` [Example 10, [1-(4-Fluorobenzyl)cyclobutyl]methyl(1S)-5-[(4-morpholinylcarbonyl)amino]-1-(oxo{[(1R)-1-phenylethyl]amino}acetyl)pentylcarbamate]: the Ki fell in the range of 10 to 100 nM. Turning to `C[C@@H](NC(=O)C(=O)[C@H](CCCCNC(=O)N1CCOCC1)NC(=O)OCC1(Cc2ccncc2)CCC1)c1ccccc1` [Example 11, [1-(4-Pyridinylmethyl)cyclobutyl]methyl(1S)-5-[(4-morpholinylcarbonyl)amino]-1-(oxo{[(1R)-1-phenylethyl]amino}acetyl)pentylcarbamate], the Ki was in the range of 1 to 10 nM.

`C[C@@H](NC(=O)C(=O)[C@H](CCCCNC(=O)N1CCOCC1)NC(=O)OCC1(Cc2cccnc2)CCC1)c1ccccc1` [Example 12, [1-(3-Pyridinylmethyl)cyclobutyl]methyl(1S)-5-[(4-morpholinylcarbonyl)amino]-1-(oxo{[(1R)-1-phenylethyl]amino}acetyl)pentylcarbamate]: the Ki lay in the range of 100 to 1000 nM. Turning to `CNC(=O)NCCCC[C@H](NC(=O)OCC1(Cc2c(F)cccc2F)CCC1)C(=O)C(=O)N[C@H](C)c1ccccc1` [Example 13, [1-(2,6-Difluorobenzyl)cyclobutyl]methyl(1S)-5-{[(methylamino)carbonyl]amino}-1-(oxo{[(1R)-1-phenylethyl]amino}acetyl)pentylcarbamate], the Ki fell in the range of 10 to 100 nM.

Turning to `CCCC[C@H](NC(=O)OCC1(Cc2ccc(F)cc2)CCC1)C(=O)C(=O)Nc1ccn[nH]1` [Example 14, [1-(4-Fluorobenzyl)cyclobutyl]methyl(1S)-1-[oxo(1H-pyrazol-5-ylamino)acetyl]pentylcarbamate], the Ki is < 1 nM. For the compound `CN(C)S(=O)(=O)NCCCC[C@H](NC(=O)OCC1(Cc2ccc(F)cc2)CCC1)C(=O)C(=O)NCc1cccnc1` [Example 16, [1-(4-Fluorobenzyl)cyclobutyl]methyl(1S)-5-{[(dimethylamino)sulfonyl]amino}-1-{oxo[(3-pyridinylmethyl)amino]acetyl}pentylcarbamate], the Ki lay in the range of 10 to 100 nM. On to `CCCC[C@H](NC(=O)OCC1(Cc2nc(-c3ccccc3)cs2)CCC1)C(=O)C(=O)N[C@H](C)c1ccccc1` [Example 18, {1-[(4-phenyl-1,3-thiazol-2-yl)methyl]cyclobutyl}methyl(1S)-1-(oxo{[(1R)-1-phenylethyl]amino}acetyl)pentylcarbamate], for which the Ki fell in the range of 1 to 10 nM. Under `CCCC[C@H](NC(=O)OCC1(CSc2nccn2C)CCC1)C(=O)C(=O)N[C@H](C)c1ccccc1` [Example 19, (1-{[(1-methyl-1H-imidazol-2-yl)sulfanyl]methyl}cyclobutyl)methyl (1S)-1-(oxo{[(1R)-1-phenylethyl]amino}acetyl)pentylcarbamate] stands 10 to 100 nM; under `CCCC[C@H](NC(=O)OCC1(COc2ccnc(Cl)n2)CCC1)C(=O)C(=O)N[C@H](C)c1ccccc1` [Example 20, (1-{[(2-chloro-4-pyrimidinyl)oxy]methyl}cyclobutyl)methyl(1S)-1-(oxo{[(1R)-1-phenylethyl]amino}acetyl)pentylcarbamate], 100 to 1000 nM; under `CCCC[C@H](NC(=O)OCC1(COc2ccnc(N3CCN(C)CC3)n2)CCC1)C(=O)C(=O)N[C@H](C)c1ccccc1` [Example 21, [1-({[2-(4-methyl-1-piperazinyl)-4-pyrimidinyl]oxy}methyl)cyclobutyl]methyl (1S)-1-(oxo{[(1R)-1-phenylethyl]amino}acetyl)pentylcarbamate], 10 to 100 nM.

Take `CCCC[C@H](NC(=O)OCC1(COc2ccnc(N3CCOCC3)n2)CCC1)C(=O)C(=O)N[C@H](C)c1ccccc1` [Example 22, [1-({[2-(4-morpholinyl)-4-pyrimidinyl]oxy}methyl)cyclobutyl]methyl (1S)-1-(oxo{[(1R)-1-phenylethyl]amino}acetyl)pentylcarbamate]: the Ki lay in the range of 10 to 100 nM. Then `CCCC[C@H](NC(=O)OCC1(CSc2ncccn2)CCC1)C(=O)C(=O)N[C@H](C)c1ccccc1` [Example 23, {1-[(2-pyrimidinylsulfanyl)methyl]cyclobutyl}methyl (1S)-1-(oxo{[(1R)-1-phenylethyl]amino}acetyl)pentylcarbamate], with 10 to 100 nM.

Turning to `CCCC[C@H](NC(=O)OCC1(CSc2nc3ccccc3o2)CCC1)C(=O)C(=O)N[C@H](C)c1ccccc1` [Example 24, {1-[(1,3-benzoxazol-2-ylsulfanyl)methyl]cyclobutyl}methyl (1S)-1-(oxo{[(1R)-1-phenylethyl]amino}acetyl)pentylcarbamate], the Ki was in the range of 10 to 100 nM. Then `CCCC[C@H](NC(=O)OCC1(COc2nccs2)CCC1)C(=O)C(=O)N[C@H](C)c1ccccc1` [Example 25, {1-[(1,3-thiazol-2-yloxy)methyl]cyclobutyl}methyl (1S)-1-(oxo{[(1R)-1-phenylethyl]amino}acetyl)pentylcarbamate], with 10 to 100 nM; and `CCCC[C@H](NC(=O)OCC1(COc2nc(-c3ccccc3)ns2)CCC1)C(=O)C(=O)N[C@H](C)c1ccccc1` [Example 26, (1-{[(3-phenyl-1,2,4-thiadiazol-5-yl)oxy]methyl}cyclobutyl)methyl (1S)-1-(oxo{[(1R)-1-phenylethyl]amino}acetyl)pentylcarbamate], with 10 to 100 nM. Turning to `CCCC[C@H](NC(=O)OCC1(COc2ccnc(N3CCN(c4ccccc4)CC3)n2)CCC1)C(=O)C(=O)N[C@H](C)c1ccccc1` [Example 27, [1-({[2-(4-phenyl-1-piperazinyl)-4-pyrimidinyl]oxy}methyl)cyclobutyl]methyl (1S)-1-(oxo{[(1R)-1-phenylethyl]amino}acetyl)pentylcarbamate], the Ki was 10 to 100 nM.
